Test results taken from patent US20240210412A1, “SULFONYL-TRIAZOLE COMPOUNDS USEFUL AS LIGANDS AND INHIBITORS OF PROSTAGLANDIN REDUCTASE 2” (University of Virginia Patent Foundation, priority 2021, published 2024).
Entries after “also recorded” stand apart in the source; their conditions may differ.

Legend:
[1] = test system: Q9Y5K3; test: SILAC LC-MS ABPP; assay type: cell-based, human; conditions: 25 μM 2 h, live DM93 cells
Experimental: (§1) Cells were grown to 90-95% confluence before being washed once with warm, sterile DPBS (1×, 5 mL), followed by addition of 10 mL of serum-free media (supplemented with 1% L-glutamine) containing either DMSO or SuTEx fragment (in DMSO) was added. Light cells were treated with DMSO vehicle while the heavy cells were treated with DMSO or SuTEx fragment (in DMSO) and incubated for 2 hrs. After 2 hrs, the cells were treated with SuTEx alkyne probe (HHS475, 10 μL of 1000× DMSO stock) and incubated for an additional 2 hrs. The media was aspirated and cells washed with cold PBS (5 mL) and harvested. Cells were spun at 500×g for 5 min at 4° C. followed by removal of supernatant. Pellets were resuspended in 1 mL of cold DPBS and spun at 1,400×g for 3 min at 4° C. followed by removal of supernatant. The cells were lysed in PBS by sonication and fractionated (100,000×g, 45 min, 4° C.).The light and heavy soluble fractions were diluted to 2.3 mg/mL in PBS and 432 μL were used for analysis (1 mg total protein). The probe-modified proteomes were conjugated to desthiobiotin-PEG3-azide (10 μl of 10 mM stock in DMSO; 200 μM final concentration) using TCEP (10 μl of fresh 50 mM stock in water, 1 mM final concentration), TBTA ligand (33 μl of a 1.7 mM 4:1 t-butanol/DMSO stock, 100 μM final concentration) and CuSO4 (10 μl of 50 mM stock, 1 mM final concentration). Samples were vortexed to mix and incubated for 1 hr at room temperature. The heavy and light proteomes were mixed 1:1 and the subsequent steps, including LC-MS/MS data analysis, were performed as previously described^[8a].
(§2) Coupling cell-based screens with chemical proteomics can facilitate the identification of target protein and binding sites that engage and are irreversibly modified by covalent ligands^[12]. In these assays, covalent ligands block SuTEx activity-based probe (ABP) labeling at protein sites, and the competition of probe labeling can be used to quantify potency and selectivity across the proteome^[10a]. To facilitate quantitative chemical proteomics, DM93 melanoma cells were cultured using stable isotopic labeling by amino acids in cell culture (SILAC)^[13]. Cells cultured in “light” media were treated with dimethyl sulfoxide (DMSO) vehicle while cells cultured in “heavy” media were treated with SuTEx ligand (25 μM, 2 hours, 37° C.). Next, cells were treated with HHS-475 probe (100 μM, 2 hours, 37° C.) followed by lysis and processing of proteomes for analysis. Probe-modified proteins from the soluble fraction were conjugated to a desthiobiotin-azide tag by copper-catalyzed azide-alkyne cycloaddition (CuAAC)^[14] followed by mixing of the light and heavy proteomes. The combined proteomes were digested with trypsin protease to produce probe-modified peptides, followed by enrichment and purification by avidin affinity chromatography. Probe-modified peptides were resolved, identified, and quantified by high-resolution liquid chromatography-tandem mass spectrometry (LC-MS/MS). Resultant data were analyzed as previously described^[8a, 10a]. Table 2, below, lists sites of modification targeted by sulfonyl-triazole compounds HHS-0101, HHS-0201, HHS-0301, HHS-0401, and HHS-0701. The format of the table is as follows: protein Uniprot accession number (see uniprot.org); tyrosine site (amino acid position) modified; treatment (sulfonyl-triazole compound identification number, followed by Y (where if multiple compounds modify the same site, the compounds are separated by vertical lines).

[2] = target: T1, P15880 (Homo sapiens, UniProt P15880); test: SILAC LC-MS ABPP; assay type: cell-based; conditions: 25 μM 2 h, live DM93 cells
T1 construct: endogenous in cells; host or cells: DM93 cells (SILAC)
Method in brief: (§3)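 Readout is SILAC heavy/light LC-MS/MS quantification of HHS-475-labelled tyrosine peptides, reflecting blockade of probe labelling by ligand. DM93 cells were pretreated with 25 μM SuTEx ligand (heavy) or DMSO (light) for 2 h at 37 °C, then probed with 100 μM HHS-475 for 2 h.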

[3] = test system: Q8NFI4; test: SILAC LC-MS ABPP; assay type: cell-based, human; conditions: 25 μM 2 h, live DM93 cells
Experimental: as §1, §2

[4] = target: T2, Q9UDY2 (Homo sapiens, UniProt Q9UDY2); test: SILAC LC-MS ABPP; assay type: cell-based; conditions: 25 μM 2 h, live DM93 cells
T2 construct: endogenous in cells; host or cells: DM93 cells (SILAC)
Method in brief: as §3

[5] = target: T3, Fumarylacetoacetase (FAH) (Homo sapiens, UniProt P16930); test: gel-based ABPP, HHS-475 probe, HEK293T cells expressing recombinant FAH; assay type: cell-based; conditions: live HEK293T cells, ligand 25 μM or varying, 2 h; HHS-475 100 μM
T3 construct: FLAG; host or cells: HEK293T
Experimental: HEK293T cells at 30-50% confluency were transfected with 2.6 μg of FAH or PTGR2 plasmid DNA in a serum-free media/polyethyleneimine solution for 48 hrs. The cells were washed once with warm, sterile DPBS (1×, 5 mL), and then 10 mL of serum-free media (supplemented with 1% L-glutamine) containing either DMSO or SuTEx fragment (in DMSO) was added. After 2 hrs, the cells were treated with 100 μM of SuTEx alkyne probe (HHS-475, 10 μL of 1000× DMSO stock) and incubated for an additional 2 hrs. The media was aspirated and cells washed with cold PBS (5 mL) and harvested. Cells were spun at 500×g for 5 min at 4° C. and supernatant was removed. Pellets were resuspended in 1 mL of cold DPB S and spun at 1,400×g for 3 min at 4° C. and supernatant was removed. […] The samples were analyzed by SDS-PAGE (30 μL) and imaged by in-gel fluorescence scanning.
Competitive gel-based chemoproteomic assays were performed using recombinant proteins from select targets to verify our LC-MS findings. […] Quantitative chemical proteomic studies identified HHS-0401 as a ligand for the Y244 site of FAH. These findings were confirmed by treating HEK293T cells expressing recombinant FAH with SuTEx ligands (25 μM, 2 hours, 37° C.) followed by labeling with HHS-475 probe (100 μM, 2 hours, 37° C.), cell lysis, and conjugation with rhodamine azide by CuAAC to visualize probe-modified proteins using in-gel fluorescence scanning.

[6] = test system: Q8N0Y7; test: SILAC LC-MS ABPP; assay type: cell-based, human; conditions: 25 μM 2 h, live DM93 cells
Experimental: as §1, §2

[7] = test system: A6NKT7; test: SILAC LC-MS ABPP; assay type: cell-based, human; conditions: 25 μM 2 h, live DM93 cells
Experimental: as §1, §2

[8] = test system: Q5VTE0; test: SILAC LC-MS ABPP; assay type: cell-based, human; conditions: 25 μM 2 h, live DM93 cells
Experimental: as §1, §2

[9] = test system: Q6IS14; test: SILAC LC-MS ABPP; assay type: cell-based, human; conditions: 25 μM 2 h, live DM93 cells
Experimental: as §1, §2

T3 sequence (P16930 whole entry): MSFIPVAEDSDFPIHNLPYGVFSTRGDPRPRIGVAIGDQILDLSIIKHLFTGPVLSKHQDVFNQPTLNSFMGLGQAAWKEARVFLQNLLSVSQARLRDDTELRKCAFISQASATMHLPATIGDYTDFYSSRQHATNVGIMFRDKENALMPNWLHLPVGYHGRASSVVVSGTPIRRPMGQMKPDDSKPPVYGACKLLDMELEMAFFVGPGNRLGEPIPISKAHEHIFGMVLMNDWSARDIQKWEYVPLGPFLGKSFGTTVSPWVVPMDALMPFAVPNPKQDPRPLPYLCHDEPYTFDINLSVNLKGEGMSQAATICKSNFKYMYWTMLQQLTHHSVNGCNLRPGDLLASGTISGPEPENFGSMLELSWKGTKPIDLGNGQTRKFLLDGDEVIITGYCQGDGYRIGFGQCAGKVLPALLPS
T2 sequence (Q9UDY2 whole entry): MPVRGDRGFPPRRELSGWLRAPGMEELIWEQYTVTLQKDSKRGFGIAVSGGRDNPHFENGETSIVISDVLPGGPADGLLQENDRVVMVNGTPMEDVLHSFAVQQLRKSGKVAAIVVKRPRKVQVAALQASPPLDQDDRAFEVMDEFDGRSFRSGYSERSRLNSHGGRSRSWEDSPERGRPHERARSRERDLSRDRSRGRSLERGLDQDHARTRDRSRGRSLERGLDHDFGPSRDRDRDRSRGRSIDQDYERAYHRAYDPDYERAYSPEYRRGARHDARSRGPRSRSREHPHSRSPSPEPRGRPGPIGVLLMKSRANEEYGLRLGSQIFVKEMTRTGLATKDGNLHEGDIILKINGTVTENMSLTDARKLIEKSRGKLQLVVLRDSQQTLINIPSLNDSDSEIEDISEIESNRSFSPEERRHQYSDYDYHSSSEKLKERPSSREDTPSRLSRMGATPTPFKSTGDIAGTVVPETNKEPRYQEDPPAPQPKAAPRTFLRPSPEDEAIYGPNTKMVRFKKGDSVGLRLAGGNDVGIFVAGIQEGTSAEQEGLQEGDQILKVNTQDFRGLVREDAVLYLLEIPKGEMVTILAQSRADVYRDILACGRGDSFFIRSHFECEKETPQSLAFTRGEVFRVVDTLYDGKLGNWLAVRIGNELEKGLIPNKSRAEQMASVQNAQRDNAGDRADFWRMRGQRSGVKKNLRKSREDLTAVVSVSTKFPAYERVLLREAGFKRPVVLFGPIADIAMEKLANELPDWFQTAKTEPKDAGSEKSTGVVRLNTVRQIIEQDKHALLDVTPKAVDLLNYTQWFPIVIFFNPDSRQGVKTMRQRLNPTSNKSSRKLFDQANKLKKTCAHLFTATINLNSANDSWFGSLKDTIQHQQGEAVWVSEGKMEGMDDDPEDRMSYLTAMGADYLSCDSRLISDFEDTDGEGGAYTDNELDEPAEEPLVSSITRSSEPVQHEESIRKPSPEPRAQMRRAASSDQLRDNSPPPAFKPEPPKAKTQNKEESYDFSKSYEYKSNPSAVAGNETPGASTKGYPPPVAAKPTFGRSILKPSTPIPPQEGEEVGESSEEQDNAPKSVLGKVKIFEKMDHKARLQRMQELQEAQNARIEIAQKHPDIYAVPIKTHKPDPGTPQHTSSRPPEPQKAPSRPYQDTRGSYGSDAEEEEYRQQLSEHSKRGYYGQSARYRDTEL

## O=C(NC1CCCCC1)c1ccc(S(=O)(=O)n2cncn2)cc1 [HHS-0301, 4-((1H-1,2,4-triazol-1-yl)sulfonyl)-N-cyclohexylbenzamide]
[1]
  liganded tyrosine site 173: HHS0301.Y (tyrosine sites that showed >80% reductions (SR >5) in probe labeling in cells treated with compounds (liganded sites))
[2]
  liganded tyrosine site 250: HHS0301.Y (tyrosine sites that showed >80% reductions (SR >5) in probe labeling in cells treated with compounds (liganded sites))

## O=C(NCC1CC1)c1ccc(S(=O)(=O)n2cncn2)cc1 [HHS-0201, 4-((1H-1,2,4-triazol-1-yl)sulfonyl)-N-(cyclopropylmethyl)benzamide]
[3]
  liganded tyrosine site 213: HHS0201.Y (tyrosine sites that showed >80% reductions (SR >5) in probe labeling in cells treated with compounds (liganded sites))
[4]
  liganded tyrosine site 423: HHS0201.Y|HHS0301.Y (tyrosine sites that showed >80% reductions (SR >5) in probe labeling in cells treated with compounds (liganded sites))

## O=C(NCc1ccccc1)c1ccc(S(=O)(=O)n2cncn2)cc1 [HHS-0401, 4-((1H-1,2,4-triazol-1-yl)sulfonyl)-N-benzylbenzamide]
[5]
  blockade of HHS-475 labeling of FAH: blocked HHS-475 labeling of FAH; also recorded: competing probe labeling of recombinant FAH in a concentration-dependent manner
[6]
  liganded tyrosine site 119: HHS0401.Y (tyrosine sites that showed >80% reductions (SR >5) in probe labeling in cells treated with compounds (liganded sites))

## O=C(NC1CC1)c1ccc(S(=O)(=O)n2cncn2)cc1 [HHS-0101, 4-((1H-1,2,4-triazol-1-yl)sulfonyl)-N-cyclopropylbenzamide]
[7]
  liganded tyrosine site 1008: HHS0101.Y (tyrosine sites that showed >80% reductions (SR >5) in probe labeling in cells treated with compounds (liganded sites))
[8]
  liganded tyrosine site 183: HHS0101.Y (tyrosine sites that showed >80% reductions (SR >5) in probe labeling in cells treated with compounds (liganded sites))
[9]
  liganded tyrosine site 127: HHS0101.Y|HHS0201.Y|HHS0701.Y (tyrosine sites that showed >80% reductions (SR >5) in probe labeling in cells treated with compounds (liganded sites))
